Results from US12220440B2, “Drug composition, method for treating infection, disinfecting composition, and drug adjuvant” (priority 2022, dated 2025).
≈ marks a conversion by molar mass, not a printed value. Read-outs that look alike come from different tables or passages of the source. Peptide text beside a SMILES is read from it.

Experiments:
Format in all cases: cell-based
mcr-1-bearing E. coli = details: colistin 32 μg/ml for 24 hours; initial ~10^8 CFU/mL in saline
Protocol: (§1) Starvation-induced bacterial sub-population tolerant cells of colistin-resistant and colistin-susceptible E. coli and A. baumannii strains are tested against the bactericidal effect of the combination of otilonium bromide and colistin. […] The incubation temperature is 37° C. Ob and colistin are added at the same time.

[1] = tested on: P. aeruginosa PAO1 and PAERC 11.603; assay: Divalent ion MIC-dependency in supplemented MHB
Protocol: In FIGS. 5e and 5f, colistin MICs of P. aeruginosa PAO1 and PAERC 11.603, respectively, are determined in MHB supplemented with different Ca^2+ ion concentrations.
(§2) Accordingly, it is believed that the addition of a chelant; or a chelant for divalent ions; or a divalent cation chelant, may further improve the activity of the drug formulation, method of use/treatment, disinfection composition, etc. of the present invention.

S. Typhimurium PY01 = assay: MIC, colistin-susceptible S. Typhimurium, with and without otilonium bromide; details: Salmonella enterica
[2] = tested on: colistin-susceptible E. coli; assay: Time-kill curves
Protocol: (§3) However, the effective bactericidal concentration of colistin could be reduced to 8 μg/ml in the presence of 20 μg/ml of otilonium bromide. For colistin-susceptible E. coli, 8 μg/ml of colistin is required to eradicate the strains. However, in the presence of 20 μg/ml of otilonium bromide 1 μg/ml colistin is sufficient to achieve complete eradication of the organism. […] Thus, without intending to be limited by theory, it is believed that this synergistic mechanism is not limited to the inhibition of the colistin resistance mechanism.

[3] = tested on: colistin-resistant E. coli; assay: Time-kill curves
Protocol: as §3

[4] = tested on: colistin-susceptible E. coli J53; assay: Killing of starvation-induced tolerant cells; details: with otilonium bromide, 24-hour treatment
Protocol: as §1

A. baumannii 17978 = assay: Killing of starvation-induced tolerant cells; details: with otilonium bromide, 24-hour treatment
Protocol: as §1

[5] = tested on: mcr-1-bearing E. coli J53; assay: microbe, parasite or virus in culture; details: 20 μg/ml of otilonium bromide
From the text: E. coli J53 strain carrying a natural mcr-1-bearing IncI2 plasmid (33 kb, KX711706.1) is used to screen and identify colistin adjuvants which could enhance the antibacterial activity of colistin.

[6] = tested on: A. baumannii (colistin-resistant); assay: MIC, colistin-resistant A. baumannii isolates, with and without otilonium bromide; details: for MIC: Acinetobacter baumannii
E. coli Bw25113 = assay: MIC, colistin-susceptible E. coli, with and without otilonium bromide; details: Escherichia coli
[7] = tested on: mcr-1-bearing E. coli J53; assay: Ca2+ / Mg2+ MIC-dependency in cation-supplemented MHB; details: 37° C., 16 hours
Protocol: Accordingly, the effect of divalent ions on the antibacterial activity of otilonium bromide and colistin is investigated. […] For FIGS. 5a-5b, E. coli J53 expressing MCR-1 is treated with colistin and colistin+Ob as indicated in Mueller Hinton II Broth (MHB) that is cation-adjusted; i.e., supplemented with different concentrations of Mg^2+ and Ca^2+ ions). The incubation is conducted at 37° C. for 16 hours.

E. coli J53 = assay: as above; details: 37° C., 16 hours
Protocol: For FIGS. 5c-5d, colistin-susceptible E. coli J53 is treated with colistin and colistin+Ob as indicated in MHB supplemented with different concentrations of Mg^2+ and Ca^2+ ions. The incubation is conducted at 37° C. for 16 hours.
as §2

[8] = tested on: mcr-1-bearing E. coli J53; assay: SYTOX Green membrane permeability staining; details: each drug individually
From the text: SYTOX™ Green (available from ThermoFisher Scientific) staining analysis assesses the membrane permeability of colistin-resistant E. coli before and after treatment with the colistin and otilonium bromide combination. SYTOX Green is a green-fluorescent nucleotide dye used to test membrane permeability and membrane integrity. Green fluorescence is detected by fluorescence spectrometer when bacterial cell integrity is destroyed and membrane permeability increases.

[9] = colistin alone, read-out: Colistin MIC, Colistin
[10] = in the presence of 10 ug/ml Ob, read-out: Colistin MIC, Colistin + 10 ug/ml Ob
[11] = in the presence of 20 ug/ml Ob, read-out: Colistin MIC, Colistin + 20 ug/ml Ob
[12] = in the presence of 20 μg/ml of otilonium bromide

CCC(C)CCCC(=O)N[C@@H](CCN)C(=O)N[C@H](C(=O)N[C@@H](CCN)C(=O)N[C@H]1CCNC(=O)[C@H]([C@@H](C)O)NC(=O)[C@H](CCN)NC(=O)[C@H](CCN)NC(=O)[C@H](CC(C)C)NC(=O)[C@@H](CC(C)C)NC(=O)[C@H](CCN)NC1=O)[C@@H](C)O (stereo partly drawn) [Colistin] (HELM PEPTIDE1{[CCC(C)CCCC(=O)[*:2]].[Dab].T.[Dab].[Dab].[Dab].[dL].L.[Dab].[Dab].T}$PEPTIDE1,PEPTIDE1,5:R3-11:R2$$$V2.0)
size of the viable tolerant population (mcr-1-bearing E. coli): 5*10^5 CFU/ml | effect of supplemented Ca2+ and Mg2+ on MIC [1]: increase the MIC | MIC (S. Typhimurium PY01; [9]): 2 µg/mL (≈ 1.73 µM) | MIC (S. Typhimurium PY01; [10]): 0.125 µg/mL | MIC (S. Typhimurium PY01; [11]): 0.03 µg/mL | colistin required to eradicate the strains (time-kill) ([2]; colistin alone): 8 µg/mL | colistin sufficient for complete eradication (time-kill) [2, 12]: 1 µg/mL | colistin concentration inhibiting growth (time-kill) ([3]; colistin alone): ≥ 32 µg/mL | effective bactericidal concentration of colistin (time-kill) [3, 12]: 8 µg/mL | concentration of colistin required to completely eradicate tolerant sub-population [4]: 1 µg/mL | concentration of colistin required to completely eradicate tolerant sub-population (A. baumannii 17978): 1 µg/mL | MIC ([5]; Escherichia coli, read-out: colistin MIC (minimum inhibitory concentration), mcr-1-bearing E. coli J53): 0.28 µg/mL (≈ 0.242 µM) | reduction in colistin MIC ([5]; mcr-1-bearing E. coli J53): 32 fold | Colistin MIC, Colistin ([6]; A. baumannii ABJZ-46, colistin-resistant, colistin alone): 4 µg/mL | Colistin MIC, Colistin ([6]; A. baumannii ABJZ-50, colistin-resistant, colistin alone): 4 µg/mL | Colistin MIC, Colistin ([6]; A. baumannii ABJZ-72, colistin-resistant, colistin alone): 4 µg/mL | MIC ([6]; ATCC17978, read-out: Colistin MIC, Colistin + 10 ug/ml Ob, A. baumannii ATCC17978, colistin-resistant, in the presence of 10 ug/ml Ob): 0.125 µg/mL | MIC ([6]; read-out: Colistin MIC, Colistin + 10 ug/ml Ob, A. baumannii ABJZ-45, colistin-resistant, in the presence of 10 ug/ml Ob): 0.0625 µg/mL | MIC ([6]; read-out: Colistin MIC, Colistin + 10 ug/ml Ob, A. baumannii ABJZ-46, colistin-resistant, in the presence of 10 ug/ml Ob): 0.5 µg/mL | MIC ([6]; read-out: Colistin MIC, Colistin + 10 ug/ml Ob, A. baumannii ABJZ-50, colistin-resistant, in the presence of 10 ug/ml Ob): 0.25 µg/mL | MIC ([6]; read-out: Colistin MIC, Colistin + 10 ug/ml Ob, A. baumannii ABJZ-72, colistin-resistant, in the presence of 10 ug/ml Ob): 0.125 µg/mL | MIC ([6]; A. baumannii ABJZ-45, colistin-resistant, colistin alone, read-out: Colistin MIC, Colistin): 4 µg/mL (≈ 3.46 µM) | MIC ([6]; A. baumannii ATCC17978, colistin-resistant, colistin alone, read-out: Colistin MIC, Colistin): 4 µg/mL (≈ 3.46 µM) | MIC (E. coli Bw25113; [9]): 2 µg/mL (≈ 1.73 µM) | MIC (E. coli Bw25113; [10]): 0.03 µg/mL | MIC (E. coli Bw25113; [11]): ≤ 0.015 µg/mL | effect of supplemented Ca2+ and Mg2+ on MIC [7]: increase the MIC | effect of supplemented Ca2+ and Mg2+ on MIC (E. coli J53): increase the MIC | SYTOX Green fluorescence (membrane permeability) [8]: significant increase in fluorescence
